# Source: patent publication US11084833B2, “Antibacterial agents against D,D- and L,D-transpeptidases” (priority 2016, dated 2021)
# Read-outs that look alike come from different tables or passages of the source.
# Columns and labels:
# LdtMt2 [1] = target: T1, LdtMt2 (Mycobacterium tuberculosis, UniProt I6Y9J2); test: Nitrocefin hydrolyzing activity after incubation with β-lactams; type: biochemical, M. tuberculosis
# LdtMab2 [2] = type: binding, M. abscessus
# LdtMt2 [3] = target: T1, LdtMt2; type: binding, M. tuberculosis
# LdtMab1 [4] = test: Isothermal titration calorimetry; type: binding, M. abscessus
# LdtMt1 [5] = target: T2, LdtMt1 (Mycobacterium tuberculosis, UniProt O53638); type: binding, M. tuberculosis
# T2 sequence (O53638 29-251): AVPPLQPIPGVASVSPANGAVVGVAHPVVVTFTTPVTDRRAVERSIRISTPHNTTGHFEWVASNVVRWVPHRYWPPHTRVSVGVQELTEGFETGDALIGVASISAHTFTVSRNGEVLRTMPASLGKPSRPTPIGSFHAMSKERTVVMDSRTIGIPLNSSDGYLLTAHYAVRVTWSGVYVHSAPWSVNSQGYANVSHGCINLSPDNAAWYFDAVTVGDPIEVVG
# [6] = tested on: Mycobacterium tuberculosis; test: Broth dilution MIC; type: cell-based; details: 336 h, end point reading at 2 weeks
# Klebsiella pneumoniae = test: Broth dilution MIC; type: cell-based; details: overnight incubation
# [7] = target: penicillin binding protein DacB2 (Mycobacterium tuberculosis, UniProt I6Y204); test: UPLC-MS analysis of acyl-enzyme adducts
# Chain of penicillin binding protein DacB2 (I6Y204 23-291): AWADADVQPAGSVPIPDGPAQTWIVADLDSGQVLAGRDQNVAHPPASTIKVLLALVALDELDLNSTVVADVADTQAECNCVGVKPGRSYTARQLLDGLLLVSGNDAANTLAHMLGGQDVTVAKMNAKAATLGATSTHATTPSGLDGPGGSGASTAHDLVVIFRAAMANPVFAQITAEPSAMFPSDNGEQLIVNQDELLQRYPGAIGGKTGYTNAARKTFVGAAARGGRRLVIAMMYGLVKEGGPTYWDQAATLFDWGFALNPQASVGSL
# LdtMt2 [8] = target: T1, LdtMt2; type: binding, M. tuberculosis; details: for acyl-enzyme adduct mass: UPLC-MS
# M. tuberculosis H37Rv = type: in vivo, BALB/c mice; details: for gross lung lesions: either alone or in combination with rifampin, end of treatment
# LdtMab1 [9] = test: UPLC-MS analysis of acyl-enzyme adducts; type: binding, Mycobacterium abscessus; details: over both the non-carbapenems and carbapenems tested
# LdtMt1 [10] = target: T2, LdtMt1; test: UPLC-MS analysis of acyl-enzyme adducts; type: binding, M. tuberculosis
# LdtKp = test: UPLC-HRMS analysis of L,D-transpeptidase/β-lactam adducts; type: binding, Klebsiella pneumoniae; details: over both the non-carbapenems and carbapenems tested
# LdtMab2 [11] = test: as above; type: binding, Mycobacterium abscessus; details: over both the non-carbapenems and carbapenems tested
# LdtPa = test: UPLC-MS analysis of acyl-enzyme adducts; type: binding, Pseudomonas aeruginosa; details: over both the non-carbapenems and carbapenems tested
# LdtCl = test: UPLC-HRMS analysis of L,D-transpeptidase/β-lactam adducts; type: binding, Enterobacter cloacae; details: over both the non-carbapenems and carbapenems tested
# Enterobacter cloacae = test: Broth dilution MIC; type: cell-based; details: overnight incubation
# [12] = tested on: Actinobacter baumannii 6 M-1b; test: Broth dilution MIC; type: cell-based; details: overnight incubation
# LdtMt2 [13] = target: T1, LdtMt2; test: biochemical; set-up: species or system M. tuberculosis; details: non-linear regression, read-out: kinact/Kapp ratio (converted)
# [14] = tested on: dehydropepetidase-1 (DHP-1); details: cited from earlier work
# Pseudomonas aeruginosa = test: Broth dilution MIC; type: cell-based; details: overnight incubation
# [15] = tested on: Methicillin Susceptible Staphylococcus aureus; test: Broth dilution MIC; type: cell-based; details: overnight incubation
# [16] = tested on: Methicillin Resistant Staphylococcus aureus; test: Broth dilution MIC; type: cell-based; details: overnight incubation
# [17] = equimolar mixture of faropenem, doripenem, biapenem and tebipenem
# [18] = following incubation with β-lactam
# [19] = Enterobacter cloacae, read-out: MIC
# T1 sequence (I6Y9J2 35-408 limits assumed): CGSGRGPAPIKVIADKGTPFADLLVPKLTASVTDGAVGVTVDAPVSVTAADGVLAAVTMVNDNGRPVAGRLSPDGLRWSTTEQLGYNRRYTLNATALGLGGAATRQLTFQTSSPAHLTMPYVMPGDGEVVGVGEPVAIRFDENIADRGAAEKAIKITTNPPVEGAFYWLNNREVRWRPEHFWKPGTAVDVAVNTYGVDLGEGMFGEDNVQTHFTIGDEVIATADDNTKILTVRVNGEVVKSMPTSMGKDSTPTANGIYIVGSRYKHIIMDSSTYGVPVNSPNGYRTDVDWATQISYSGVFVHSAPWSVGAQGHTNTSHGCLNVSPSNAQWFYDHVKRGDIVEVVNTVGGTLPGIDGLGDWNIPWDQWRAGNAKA
smiles,measurement,setting,value
CC(=O)OCC1=C(C(=O)O)N2C(=O)[C@@H](NC(=O)Cc3cccs3)[C@H]2SC1 [cephalothin],inhibition of nitrocefin hydrolysis,LdtMt2 [1],comparable inhibitory activity
C[C@@H](O)[C@H]1C(=O)N2C(C(=O)O)=C(SC3CN(C4=NCCS4)C3)[C@H](C)[C@H]12 [tebipenem],ITC binding,LdtMab2 [2],Binding
same,ITC binding,LdtMt2 [3],single-modality binding
same,ITC binding,LdtMab1 [4],Binding
same,ITC binding,LdtMt1 [5],single-modality binding
"C[C@@H](O)[C@H]1C(=O)N2C(C(=O)[O-])=C(SCCO)S[C@H]12.[K+] [Compound T407, Potassium (5R,6S)-6-((R)-1-hydroxyethyl)-3-((2-hydroxyethyl)thio)-7-oxo-4-thia-1-azabicyclo[3.2.0]hept-2-ene-2-carboxylate]",MIC,[6],2 to 4 µg/mL
same,MIC,Klebsiella pneumoniae,8 to 16 µg/mL
CC1(C)S[C@@H]2[C@H](NC(=O)C(C(=O)O)c3ccccc3)C(=O)N2[C@H]1C(=O)O (stereo partly drawn) [carbenicillin],adduct mass,[7]; UPLC-MS,+379 Da
same,adduct formation,LdtMt2 [8],failed to bind
C[C@@H](O)[C@H]1C(=O)N2C(C(=O)O)=C([C@H]3CCCO3)S[C@H]12 [faropenem],species detected in competition assay,[7],the only species detected
same,ITC binding,LdtMab2 [2],Binding
same,ITC binding,LdtMt2 [3],single-modality binding
same,gross lung lesions,M. tuberculosis H37Rv,prevented the development of gross lung lesions
same,preferential reaction in β-lactam mixtures,LdtMab1 [9],preferentially reacted with faropenem
same,acyl-enzyme adduct mass,LdtMt2 [8],+86 Da
same,adduct detected in competition assay,LdtMt2 [8]; [17],the only adduct detected
same,acyl-enzyme adduct mass,LdtMt1 [10]; UPLC-MS,+86 Da
same,adduct detected in competition assay,LdtMt1 [10]; [17],the only adduct detected
same,preferential reaction in β-lactam mixtures,LdtKp,preferentially reacted with faropenem
same,preferential reaction in β-lactam mixtures,LdtMab2 [11],preferentially reacted with faropenem
same,preferential reaction in β-lactam mixtures,LdtPa,preferentially reacted with faropenem
same,inhibition of nitrocefin hydrolysis,LdtMt2 [1]; [18],robustly inhibited
same,preferential reaction in β-lactam mixtures,LdtCl,preferentially reacted with faropenem
same,ITC binding,LdtMab1 [4],Binding
same,ITC binding,LdtMt1 [5],single-modality binding
"COC(=O)CCSC1=C(C(=O)[O-])N2C(=O)[C@H]([C@@H](C)O)[C@H]2S1.[K+] [Compound T408, Potassium (5R,6S)-6-((R)-1-hydroxyethyl)-3-((3-methoxy-3-oxopropyl)thio)-7-oxo-4-thia-1-azabicyclo[3.2.0]hept-2-ene-2-carboxylate]",MIC,[6],0.5 to 1 µg/mL
same,MIC,Klebsiella pneumoniae,8 to 16 µg/mL
same,MIC,Enterobacter cloacae; unit as printed for T408,4-8 g/mL
same,MIC,[12],16 to 32 µg/mL
C[C@@H](O)[C@H]1C(=O)N2C(C(=O)O)=C(S[C@@H]3CN[C@H](CNS(N)(=O)=O)C3)[C@H](C)[C@H]12 [doripenem],acyl-enzyme adduct mass,LdtMt2 [8],123 Da
same,inhibition of nitrocefin hydrolysis,LdtMt2 [1]; [18],robustly inhibited
"C[C@@H](O)[C@H]1C(=O)N2C(C(=O)[O-])=C(SC3CNC(CNS(N)(=O)=O)C3)S[C@H]12.[K+] (stereo in doubt) [Compound T409, Potassium (5R,6S)-6-((R)-1-hydroxyethyl)-7-oxo-3-(((3R,5R)-5-((sulfamoylamino)methyl)pyrrolidin-3-yl)thio)-4-thia-1-azabicyclo[3.2.0]hept-2-ene-2-carboxylate]",MIC,[6],0.5 to 1 µg/mL
"CCCSC1=C(C(=O)[O-])N2C(=O)[C@H]([C@@H](C)O)[C@H]2S1.[K+] [Compound T406, Potassium (5R,6S)-6-((R)-1-hydroxyethyl)-3-propylthio-7-oxo-4-thia-1-azabicyclo[3.2.0]hept-2-ene-2-carboxylate]",MIC,[6],0.5 to 1 µg/mL
same,MIC,Klebsiella pneumoniae,0.25 to 0.5 µg/mL
same,MIC,Enterobacter cloacae; [19],4 to 8 µg/mL
same,MIC,[12],4 to 8 µg/mL
C[C@@H](O)[C@H]1C(=O)N2C(C(=O)[O-])=C(SC3Cn4cnc[n+]4C3)[C@H](C)[C@H]12 (stereo partly drawn) [biapenem],gross lung lesions,M. tuberculosis H37Rv,prevented the development of gross lung lesions
same,activity on bacterial load (CFUs) in the lungs,"M. tuberculosis H37Rv; mouse, in vivo",bacteriostatic activity
same,kinact/KI,LdtMt2 [13],3830 M⁻¹ s⁻¹
same,adduct formation,LdtMt2 [8],Stable adducts could be detected
same,inactivation by DHP-1,[14],resistant to inactivation by DHP-1
same,inhibition of nitrocefin hydrolysis,LdtMt2 [1]; [18],robustly inhibited
"C[C@@H](O)C1C(=O)N2C(C(=O)[O-])=C(SC3CN(C4=NCCS4)C3)SC12.[K+] (stereo in doubt) [Compound T405, Potassium (5S,6R)-3-((1-(4,5-dihydrothiazol-2-yl)azetidin-3-yl)thio)-6-((R)-1-hydroxyethyl)-7-oxo-4-thia-1-azabicyclo[3.2.0]hept-2-ene-2-carboxylate]",MIC,Pseudomonas aeruginosa,4 to 8 µg/mL
same,MIC,[15],0.03 to 0.06 µg/mL
same,MIC,[6],0.5 to 1 µg/mL
same,MIC,Klebsiella pneumoniae,0.125 to 0.25 µg/mL
same,MIC,Enterobacter cloacae; [19],0.25 to 0.5 µg/mL
same,MIC,[16],0.03 to 0.06 µg/mL
same,MIC,[12],4 to 8 µg/mL
"C[C@@H](O)[C@H]1C(=O)N2C(C(=O)[O-])=C(SC3CNC(C(=O)N(C)C)C3)S[C@H]12.[K+] (stereo in doubt) [Compound T410, Potassium (5R,6S)-3-(((3R,5R)-5-(dimethylcarbamoyl)pyrrolidin-3-yl)thio)-6-((R)-1-hydroxyethyl)-7-oxo-4-thia-1-azabicyclo[3.2.0]hept-2-ene-2-carboxylate]",MIC,Pseudomonas aeruginosa,0.5 to 1 µg/mL
same,MIC,[6],8 to 16 µg/mL
same,MIC,Klebsiella pneumoniae,2 to 4 µg/mL
same,MIC,Enterobacter cloacae; [19],1 to 2 µg/mL
same,MIC,[12],0.5 to 1 µg/mL
